The results in this text go back to patent US7468281B2, “Hollow fiber membrane sample preparation devices” (priority 2001, dated 2008).

Holding throughout (format): physicochemical
Data set [1] in a line: LPME of drugs from human plasma, urine and whole blood with vial format device, CZE analysis.
Data set [2] can be described thus: LPME of eight basic drugs from water with phosphate buffer acceptors of different pH, CE analysis.
The nature of data set [3]: LPME of seven basic drugs from water with different acidic acceptor phases, CE analysis. Conditions: water sample, 100 ng/mL.
Data set [4] can be described thus: LPME of seven basic drugs with different hollow fibres (polypropylene, polysulfone).
[5] abbreviates: human plasma, same fashion as tramadol example, running buffer 75 mM phosphate pH 3.0 + triethylamine + hydroxypropyl-β-cyclodextrin.
Setting [6] is: human plasma 0.5 mL, hexyl ether, 0.1 M hydrochloric acid (17 μL) acceptor, 45 minutes, tramadol example.
Setting [7] is: 10 mM phosphate buffer acceptor pH 2.5, 60 minutes.
Setting [8] is: 10 mM phosphate buffer acceptor pH 3.5, 60 minutes.
Where [9] appears, read: 10 mM phosphate buffer acceptor pH 4.5, 60 minutes.
Setting [10] is: 10 mM phosphate buffer acceptor pH 5.5, 60 minutes.
[11] abbreviates: 10 mM phosphate buffer acceptor pH 6.5, 60 minutes.
Setting [12] is: 10 mM phosphate buffer acceptor pH 7.5, 60 minutes.
[13] abbreviates: human urine 2.0 mL, hexyl ether, 0.01 M hydrochloric acid acceptor, 45 minutes.
[14] abbreviates: acceptor phase 10 mM CH3COOH, measured pH 3.3.
Where [15] appears, read: acceptor phase 10 mM H2S04, measured pH 2.1.
The mark [16] stands for this setting: acceptor phase 10 mM H3PO4, measured pH 2.5.
[17] abbreviates: acceptor phase 10 mM HCOOH, measured pH 3.1.
Setting [18] is: acceptor phase 10 mM HCl, measured pH 2.1.
Where [19] appears, read: acceptor phase 10 mM HNO3, measured pH 1.9.
[20] abbreviates: acceptor phase 10 mM acetate, measured pH 4.8.
Setting [21] is: acceptor phase 10 mM phosphate, measured pH 3.3.
Setting [22] is: acceptor phase 100 mM CH3COOH, measured pH 2.7.
Where [23] appears, read: acceptor phase 100 mM H2S04, measured pH 1.3.
[24] abbreviates: acceptor phase 100 mM H3PO4, measured pH 1.8.
The mark [25] stands for this setting: acceptor phase 100 mM HCOOH, measured pH 2.3.
[26] abbreviates: acceptor phase 100 mM HCl, measured pH 1.2.
Where [27] appears, read: acceptor phase 100 mM phosphate, measured pH 3.0.
Where [28] appears, read: hollow fibre Polypropylene, 280 μm ID, hexyl ether, 0.01 M hydrochloric acid acceptor.
The mark [29] stands for this setting: hollow fibre Polypropylene, 600 μm ID, hexyl ether, 0.01 M hydrochloric acid acceptor.
[30] abbreviates: hollow fibre Polysulfone, 500 μm ID, hexyl ether, 0.01 M hydrochloric acid acceptor.
Setting [31] is: acceptor phase 100 mM HNO3, measured pH 1.1.
Where [32] appears, read: human plasma 250 μL, hexyl ether membrane, 0.01 M hydrochloric acid acceptor, 30 minutes.
The mark [33] stands for this setting: human whole blood 250 μL, hexyl ether membrane, 0.01 M hydrochloric acid acceptor, 30 minutes.
[34] abbreviates: human urine or plasma 2.5 mL, 1-octanol membrane, 0.1M hydrochloric acid acceptor, 45 minutes.

Like-named read-outs stand apart in the source and are kept apart here.

Take `CN1CCN2c3ccccc3Cc3ccccc3C2C1` (stereo not drawn) [Mianserine, mianserine]: in data set [1] (setting [5]), the Enrichment is 15 fold and the Extraction efficiency is listed as 50%.

`CNCCCC1(c2ccc(F)cc2)OCc2cc(C#N)ccc21` (stereo not drawn) [N-desmethyl metabolite, N-desmethylcitalopram]: the Preconcentration in data set [1] (patient plasma 1 mL, hexyl ether membrane, 20 mM phosphate buffer pH 2.75 acceptor, 45 minutes) was 30 fold.

Take `COc1ccc2cc([C@H](C)C(=O)O)ccc2c1` [Naproxen, naproxen]: in data set [1], the Enrichment is on record as 82 fold.

In the case of `COc1cccc(C2(O)CCCCC2CN(C)C)c1` (stereo not drawn) [Tramadol, tramadol], in data set [1] (setting [6]), the Enrichment is 30 fold and the Extraction efficiency is 100%.

Turning to `CC(N)Cc1ccccc1` (stereo not drawn) [amphetamine], the “Enrichment (average of 3 replicates)” value in data set [2] (setting [7]) worked out at 107; in data set [2] (setting [8]), 102; in data set [2] (setting [9]), 104; in data set [2] (setting [10]), 93; in data set [2] (setting [11]), 88; in data set [2] (setting [12]), 64. The “Enrichment (average of 3 replicates)” value in data set [3] (setting [14]) is listed as 66; in data set [3] (setting [15]), 104; in data set [3] (setting [16]), 72; in data set [3] (setting [17]) it was 72; in data set [3] (setting [18]), 82; in data set [3] (setting [19]), 48. Also, the “Enrichment (average of 3 replicates)” value in data set [3] (setting [20]) was determined as 90; in data set [3] (setting [21]) it was 123; in data set [3] (setting [22]), 48; in data set [3] (setting [23]), 98; in data set [3] (setting [24]), 58; in data set [3] (setting [25]), 5. Also, the “Enrichment (average of 3 replicates)” value in data set [3] (setting [26]) stood at 74; in data set [3] (setting [27]), 128; in data set [4] (setting [28]) it was 104; in data set [4] (setting [29]), 82; in data set [4] (setting [30]) it was 22. In data set [1] (setting [13]), this compound displayed an Enrichment of 77. Further, the Extraction efficiency in data set [1] (setting [13]) was 97%.

For the compound `CN1CCN(C(c2ccccc2)c2ccc(Cl)cc2)CC1` (stereo not drawn) [chlorcyclizine], the “Enrichment (average of 3 replicates)” value in data set [2] (setting [7]) is recorded as 123; in data set [2] (setting [8]), 32; in data set [2] (setting [9]), 5; in data set [3] (setting [14]), 32; in data set [3] (setting [15]), 122; in data set [3] (setting [16]), 118. Further, the “Enrichment (average of 3 replicates)” value in data set [3] (setting [17]) was found to be 72; in data set [3] (setting [18]), 126; in data set [3] (setting [19]), 120; in data set [3] (setting [20]), 3; in data set [3] (setting [21]), 83; in data set [3] (setting [22]), 66. The “Enrichment (average of 3 replicates)” value in data set [3] (setting [23]) is reported as 136; in data set [3] (setting [24]) it was 80; in data set [3] (setting [25]) it was 93; in data set [3] (setting [26]), 138; in data set [3] (setting [31]), 136; in data set [3] (setting [27]), 93. Moreover, the results for the “Enrichment (average of 3 replicates)” value in data set [4] (setting [28]), in data set [4] (setting [29]) and in data set [4] (setting [30]) were 106, 126 and 110, respectively. Also, the Enrichment in data set [1] (human plasma 2.0 mL, hexyl ether, 0.01 M hydrochloric acid acceptor, 45 minutes) was 52.

On to `CN1C(=O)CN=C(c2ccccc2)c2cc(Cl)ccc21` [diazepam], for which the “Enrichment (average of 3 replicates)” value in data set [2] (pH 2.5) came out at 3; in data set [2] (pH 3.5) it was 2.

Regarding `O=C(CCCN1CCC(O)(c2ccc(Cl)cc2)CC1)c1ccc(F)cc1` [haloperidol], the “Enrichment (average of 3 replicates)” value in data set [4] turned out to be 131.

Regarding `CCC(=O)C(CC(C)N(C)C)(c1ccccc1)c1ccccc1` (stereo not drawn) [methadone], the Enrichment in data set [1] (setting [32]) is 6.4; in data set [1] (setting [33]), 5.4. Also, the “Enrichment (average of 3 replicates)” value in data set [3] (setting [14]) was 86; in data set [3] (setting [15]), 157; in data set [3] (setting [16]), 96; in data set [3] (setting [17]) it was 114; in data set [3] (setting [18]), 138; in data set [3] (setting [19]), 141. Further, the “Enrichment (average of 3 replicates)” value in data set [3] (setting [20]) was 42; in data set [3] (setting [21]) it was 134; in data set [3] (setting [22]), 84; in data set [3] (setting [23]) it was 150; in data set [3] (setting [24]) it was 77; in data set [3] (setting [25]), 91. For the same compound, the “Enrichment (average of 3 replicates)” value in data set [3] (setting [26]) was 134; in data set [3] (setting [31]), 107; in data set [3] (acceptor phase 100 mM acetate, measured pH 4.8), 42; in data set [3] (setting [27]) it was 117; in data set [4] (setting [28]), 138; in data set [4] (setting [29]), 138. Besides, the “Enrichment (average of 3 replicates)” value in data set [4] (setting [30]) stood at 139.

In the case of `CN[C@@H](C)Cc1ccccc1` [methamphetamine], the “Enrichment (average of 3 replicates)” value in data set [2] (setting [7]) worked out at 150; in data set [2] (setting [8]), 146; in data set [2] (setting [9]), 150; in data set [2] (setting [10]), 134; in data set [2] (setting [11]) it was 122; in data set [2] (setting [12]) it was 88. Further, the “Enrichment (average of 3 replicates)” value in data set [3] (setting [14]) is given as 93; in data set [3] (setting [15]), 141; in data set [3] (setting [16]) it was 96; in data set [3] (setting [17]) it was 106; in data set [3] (setting [18]) it was 122; in data set [3] (setting [19]), 125. Also, the “Enrichment (average of 3 replicates)” value in data set [3] (setting [20]) is listed as 128; in data set [3] (setting [21]), 136; in data set [3] (setting [22]), 77; in data set [3] (setting [23]), 134; in data set [3] (setting [24]), 83; in data set [3] (setting [25]), 13. The “Enrichment (average of 3 replicates)” value is 120 in data set [3] (setting [26]); 133 in data set [3] (setting [27]); 123 in data set [4] (setting [28]); 122 in data set [4] (setting [29]); 46 in data set [4] (setting [30]). The Enrichment is reported as 8.1 in data set [1] (setting [32]); 75 fold in data set [1] (setting [34]); “one hundred” in data set [1] (human whole blood 2.5 mL, 280 μm ID polypropylene fiber, hexyl ether, 17 μL 0.1 M hydrochloric acid acceptor, 30 minutes); 7.8 in data set [1] (setting [33]). For the same compound, the Extraction efficiency in data set [1] (setting [32]) was found to be 81%; in data set [1] (setting [34]), 75%; in data set [1] (setting [33]), 78%. Also, the “Enriched to the extent of” value in data set [4] (polypropylene fiber, 600 μm inner diameter, hexyl ether, 0.01 M hydrochloric acid) is reported as 82%. Besides, the “Recovered/enriched to the extent of” value in data set [4] (polysulfone fiber, 500 μm inner diameter, hexyl ether, 0.01 M hydrochloric acid) stood at 22%.

Take `COc1ccc2c(c1OC)C(=O)O[C@@H]2[C@H]1c2c(cc3c(c2OC)OCO3)CCN1C` [noscapin]: the “Enrichment (average of 3 replicates)” value stood at 8 in data set [2] (setting [7]) and 2 in data set [2] (setting [8]).

In data set [1] (setting [32]), `CC(CN1c2ccccc2Sc2ccccc21)N(C)C` (stereo not drawn) [promethazine] had an Enrichment of 5.5 and an Extraction efficiency of 55%. In data set [1] (setting [33]), this compound registered an Enrichment of 4.3 and an Extraction efficiency of 43%.

As to `COC(=O)[C@H]1[C@H]2C[C@@H]3c4[nH]c5cc(OC)ccc5c4CCN3C[C@H]2C[C@@H](OC(=O)c2cc(OC)c(OC)c(OC)c2)[C@@H]1OC` [reserpin], the “Enrichment (average of 3 replicates)” value was 18 in data set [2] (setting [7]) and 2 in data set [2] (setting [8]).
